Test results from patent publication US20040185566A1, “Polypeptides toxic to nematodes and methods of use” (priority 2003, published 2004).
Read-outs that look alike come from different tables or passages of the source.

What was measured:
SMP #1 = SMP #1 (Serratia marcescens, UniProt P23694, N428Q/P266L); format: biochemical, S. marcescens NRRL B-23112
A. suum = experiment: Assay for lytic activity against live A. suum; settings: A. suum
R. similis = experiment: Assay for lytic activity against R. similis (microtiter plates); format: in vivo
Experimental: The assays were performed in microtiter plates. Ten microliters of R. similissuspensions were placed in microtiter plate wells. Serially diluted SMP #1 (100U in 0.1 ml stock) was added to the wells. PBS was added to a series of wells containing R. similis as a control. The nematodes were stored at 20° C. and examined for lytic effects or death at 48 and 96 hours.

Chain of SMP #1 (P23694 17-487 P266L/N428Q): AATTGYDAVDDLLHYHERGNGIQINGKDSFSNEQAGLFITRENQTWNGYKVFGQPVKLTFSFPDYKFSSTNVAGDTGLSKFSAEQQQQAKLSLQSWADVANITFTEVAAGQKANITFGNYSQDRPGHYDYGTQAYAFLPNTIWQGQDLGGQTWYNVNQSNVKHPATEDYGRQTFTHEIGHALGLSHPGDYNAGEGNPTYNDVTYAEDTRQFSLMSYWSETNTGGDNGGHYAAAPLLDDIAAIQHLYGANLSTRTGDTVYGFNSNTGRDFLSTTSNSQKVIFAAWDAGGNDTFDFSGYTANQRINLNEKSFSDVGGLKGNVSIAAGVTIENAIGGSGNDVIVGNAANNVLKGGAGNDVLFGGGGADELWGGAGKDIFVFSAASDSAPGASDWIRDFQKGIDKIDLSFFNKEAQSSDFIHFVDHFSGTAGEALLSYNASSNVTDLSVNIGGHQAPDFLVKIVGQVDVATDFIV

## O=C(O)CN(CCN(CC(=O)O)CC(=O)O)CC(=O)O [EDTA]
SMP #1; EDTA 9μg/ml
  inhibition of SMP #1 proteolytic activity: inhibited

## aprotinin
SMP #1; aprotinin 4 μg/ml
  inhibition of SMP #1 proteolytic activity: not inhibited

## CC(C)C[C@H](NC(=O)[C@H]1O[C@@H]1C(=O)O)C(=O)NCCCCN=C(N)N [E-64]
SMP #1; E-64 20 μg/ml
  inhibition of SMP #1 proteolytic activity: not inhibited

## serratiopeptidase [SMP #2, reference compound]
A. suum
  lysis / mortality of the nematode on contact: does not lyse or cause significant mortality
R. similis; 10 U/well, 10 wells, 20° C.
  Dead (nematodes counted): 109
  Live (nematodes counted): 175
R. similis; 10 U/well, 10 wells, 20° C., significant difference (p < 0.05) between treatments
  % mortality: 38%
R. similis; R. similis
  lysis / mortality of the nematode on contact: does not lyse or cause significant mortality

## Cl.NCCc1ccc(S(=O)(=O)F)cc1 [Pefabloc SC]
SMP #1; Pefabloc SC 2000 μ/ml
  inhibition of SMP #1 proteolytic activity: not inhibited
